Assay results published in ChEMBL document CHEMBL1142452, “Pyrazolidine-3,5-dione derivatives as potent non-steroidal agonists of farnesoid X receptor: virtual screening, synthesis, and biological evaluation” (Bioorg Med Chem Lett, 2008).
Active and inactive are the calls of the source. The calls are words filed in the database; no cut-off is given here.

Columns and labels:
Bile acid receptor = target: T1, Bile acid receptor (Homo sapiens, UniProt Q96RI1); assay: Agonist activity at FXR assessed as activation by cell based luciferase transactivation assay; type: functional
T1 sequence (Q96RI1 whole entry): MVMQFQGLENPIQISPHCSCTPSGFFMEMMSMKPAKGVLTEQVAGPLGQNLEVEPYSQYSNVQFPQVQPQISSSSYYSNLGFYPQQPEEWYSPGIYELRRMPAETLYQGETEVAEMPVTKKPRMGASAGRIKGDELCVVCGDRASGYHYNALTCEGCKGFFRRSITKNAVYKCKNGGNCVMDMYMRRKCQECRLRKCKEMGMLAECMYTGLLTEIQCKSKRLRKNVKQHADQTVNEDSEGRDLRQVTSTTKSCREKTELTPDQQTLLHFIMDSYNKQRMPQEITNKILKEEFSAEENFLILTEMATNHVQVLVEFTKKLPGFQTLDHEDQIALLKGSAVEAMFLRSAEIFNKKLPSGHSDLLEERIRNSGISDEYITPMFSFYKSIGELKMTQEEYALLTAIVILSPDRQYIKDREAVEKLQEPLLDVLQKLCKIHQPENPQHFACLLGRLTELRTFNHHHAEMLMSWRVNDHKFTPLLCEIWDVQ

[1] = target: T2, Bile acid receptor (Homo sapiens) (UniProt Q96RI1); assay: Agonist activity at FXR assessed as activation by cell based luciferase transactivation assay at less than 5 uM; type: functional
T2 sequence (whole entry): T1 sequence (Q96RI1 whole entry)

SMILES | EC50 (Bile acid receptor) | Activity [1]
Cc1cccc(COc2cccc(/C=C3\C(=O)NN(c4ccccc4[N+](=O)[O-])C3=O)c2)c1 | 5.37 µM | 
Cc1cccc(COc2cccc(/C=C3\C(=O)NN(C(=O)c4ccc(F)cc4)C3=O)c2)c1 | 1.86 µM | Active
O=C1NN(c2ccccc2)C(=O)/C1=C/c1cccc(OCc2cccc(C(F)(F)F)c2)c1 | 6.92 µM | 
O=C1NN(C(=O)c2ccccc2)C(=O)/C1=C/c1ccc(OCc2ccccc2)cc1 | 3.98 µM | 
Cc1cccc(COc2cccc(/C=C3\C(=O)NN(c4ccccc4)C3=O)c2)c1 | 5.15 µM | 
O=C1C(=Cc2cccc([N+](=O)[O-])c2)C(=O)N(c2ccccc2)N1c1ccccc1 | 4.27 µM | 
CCOC(=O)C(=Cc1ccc(OCc2ccccc2)cc1)C(=O)OCC | 6.17 µM | 
O=C1C(=Cc2ccc(OCc3ccccc3)cc2)C(=O)N(c2ccccc2)N1c1ccccc1 | 6.31 µM | Active
O=C1NN(c2ccccc2)C(=O)/C1=C/c1cccc(OCc2ccc(C(F)(F)F)cc2)c1 | 2.04 µM | Active
O=C1NN(C(=O)c2ccco2)C(=O)/C1=C/c1ccc(OCc2ccccc2)cc1 | 3.31 µM | 
Cc1cccc(COc2cccc(/C=C3\C(=O)NN(C(=O)c4ccncc4)C3=O)c2)c1 | 2.4 µM | Active
O=C1NN(c2ccccc2)C(=O)/C1=C/c1cccc(OCc2cccc(F)c2)c1 | 4.79 µM | 
